The text below walks through data of patent US9206200B2, “N-linked lactam M1 receptor positive allosteric mogulators” (Merck Sharp & Dohme Corp., priority 2011, dated 2015).

The structures appear in SMILES notation.

In one assay the target is T1, acetylcholine muscarinic M1 receptor (Homo sapiens, UniProt P11229).
T1 construct: expressed in transfected cells; host or cells: CHOnfat cells (CHO cells with an NFAT reporter) expressing hM1, kept under Geneticin selection
T1 sequence (P11229 1-460): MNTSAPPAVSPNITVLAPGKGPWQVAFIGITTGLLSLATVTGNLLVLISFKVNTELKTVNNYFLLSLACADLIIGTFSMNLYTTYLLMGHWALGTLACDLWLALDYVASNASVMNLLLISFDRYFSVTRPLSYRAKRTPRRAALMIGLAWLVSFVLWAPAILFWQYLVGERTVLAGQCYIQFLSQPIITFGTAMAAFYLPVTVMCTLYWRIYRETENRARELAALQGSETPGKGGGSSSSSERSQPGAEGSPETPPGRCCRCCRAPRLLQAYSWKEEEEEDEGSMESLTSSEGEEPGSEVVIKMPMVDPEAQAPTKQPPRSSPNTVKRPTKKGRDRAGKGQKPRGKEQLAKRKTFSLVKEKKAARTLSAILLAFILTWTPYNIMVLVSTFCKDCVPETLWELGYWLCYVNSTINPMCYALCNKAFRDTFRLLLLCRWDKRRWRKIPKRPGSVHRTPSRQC
As to the kind of experiment: muscarinic FLIPR assay: intracellular calcium in CHOnfat/hM1 cells, potentiation of EC20 acetylcholine. Type of assay: cell-based. To be noted: IP Value (nM), Table 3; inflection point calculated from the FLIPR values; EC20 acetylcholine (3 nM final). A digest of the protocol:
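CHOnfat cells stably expressing human M1, Fluo-4AM-loaded, in HBSS with 20 mM HEPES, 2.5 mM probenecid, 1% BSA. Compounds preincubated 4 min (printed "4 mM") before an EC20 acetylcholine challenge (3 nM final). FLIPR intracellular Ca²⁺ signal compared with 3 nM acetylcholine alone to detect potentiation.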
For `CN(C)C(=O)Oc1cccc(N2Cc3c(cc(CN4CCC(F)(F)CC4)c4cccnc34)C2=O)c1` [Example 10, 3-{5-[(4,4-Difluoropiperidin-1-yl)methyl]-7-oxo-7,9-dihydro-8H-pyrrolo[3,4-h]quinolin-8-yl}phenyl dimethylcarbamate], the EC50 is 2260 nM.

The same assay, now with this note: Table 1; CHOnfat/hM1 cells, FLIPR, EC20 acetylcholine (3 nM final); read-out: M1 Pot.
Regarding `O=C1c2cc(CN3CCC(F)(c4ccccc4)CC3)c3ccccc3c2CN1[C@@H]1CCCC[C@H]1O` [Example 53, 5-[(4-fluoro-4-phenylpiperidin-1-yl)methyl]-2-[(1R,2R)-2-hydroxycyclohexyl]-1,2-dihydro-3H-benzo[e]isoindol-3-one], the EC50 amounted to 248 nM.

On to `Cn1cc(N2CCN(Cc3cc4c(c5ccccc35)CN([C@@H]3CCCC[C@H]3O)C4=O)CC2)cn1` [Example 81, 2-[(1R,2R)-2-hydroxycyclohexyl]-5-{[4-(1-methyl-1H-pyrazol-4-yl)piperazin-1-yl]methyl}-1,2-dihydro-3H-benzo[e]isoindol-3-one], for which the EC50 turned out to be 496 nM.

`CC1CCN(Cc2cc3c(c4ccccc24)CN([C@H]2CCCC[C@@H]2O)C3=O)CC1` [Example 21, 2-[(1S,2S)-2-hydroxycyclohexyl]-5-[(4-methylpiperidin-1-yl)methyl]-1,2-dihydro-3H-benzo[e]isoindol-3-one]: the EC50 is 1500 nM.

As to `CC1CCCN(Cc2cc3c(c4ccccc24)CN(C2CCCCC2O)C3=O)C1` (stereo not shown) [Example 16, 2-(2-hydroxycyclohexyl)-5-[(3-methylpiperidin-1-yl)methyl]-1,2-dihydro-3H-benzo[e]isoindol-3-one], the EC50 came to 7800 nM.

With `O=C1c2cc(CN3CCC(F)CC3)c3ccccc3c2CN1C1CCCCC1O` (stereo not shown) [Example 26, 5-[(4-fluoropiperidin-1-yl)methyl]-2-(2-hydroxycyclohexyl)-1,2-dihydro-3H-benzo[e]isoindol-3-one], the EC50 worked out at 160 nM.

For the compound `N#CC1(c2cnccn2)CCN(Cc2cc3c(c4ccccc24)CN([C@H]2CCCC[C@@H]2O)C3=O)CC1` [Example 50, 1-({2-[(1S,2S)-2-hydroxycyclohexyl]-3-oxo-2,3-dihydro-1H-benzo[e]isoindol-5-yl}methyl)-4-(pyrazin-2-yl)piperidine-4-carbonitrile], the EC50 was determined as 31 nM.

As to `O=C1c2cc(CN3CC[C@H](F)C3)c3ccccc3c2CN1C1CCCCC1O` (stereo partly drawn) [Example 32, 5-{[(3S)-3-fluoropyrrolidin-1-yl]methyl}-2-(2-hydroxycyclohexyl) 1,2-dihydro-3H-benzo[e]isoindol-3-one], the EC50 was found to be 1800 nM.

For the compound `O=C1c2cc(CN3CCC(C(F)(F)F)CC3)c3ccccc3c2CN1C1CCCCC1O` (stereo not shown) [Example 27, 2-(2-hydroxycyclohexyl)-5-{[4-(trifluoromethyl)piperidin-1-yl]methyl}-1,2-dihydro-3H-benzo[e]isoindol-3-one], the EC50 worked out at 360 nM.

For `N#CC1(c2ccccc2Cl)CCN(Cc2cc3c(c4ccccc24)CN([C@H]2CCCC[C@@H]2O)C3=O)CC1` [Example 59, 4-(2-chlorophenyl)-1-({2-[(1S,2S)-2-hydroxycyclohexyl]-3-oxo-2,3-dihydro-1H-benzo[e]isoindol-5-yl}methyl)piperidine-4-carbonitrile], the EC50 stood at 46 nM.

On to `O=C1c2cc(CN3CCN(c4ccncc4)CC3)c3ccccc3c2CN1[C@H]1CCCC[C@@H]1O` [Example 77, 2-[(1S,2S)-2-hydroxycyclohexyl]-5-[(4-pyridin-4-ylpiperazin-1-yl)methyl]-1,2-dihydro-3H-benzo[e]isoindol-3-one], for which the EC50 was found to be 213 nM.

Still in this assay, the particulars now being: Table 2; CHOnfat/hM1 cells, FLIPR, EC20 acetylcholine (3 nM final); read-out: M1 Pot.
As for `O=C1c2cc(CN3CCC(O)CC3)c3cccnc3c2CN1C1CCCCC1O` (stereo not shown) [Example 89, 8-(2-hydroxycyclohexyl)-5-[(4-hydroxypiperidin-1-yl)methyl]-8,9-dihydro-7H-pyrrolo[3,4-h]quinolin-7-one], the EC50 turned out to be 290 nM.

Regarding `O=C1c2cc(CN3CCC(F)(C#CC4CC4)CC3)c3cccnc3c2CN1[C@H]1CCCC[C@@H]1O` [Example 132, 5-{[4-(cyclopropylethynyl)-4-fluoropiperidin-1-yl]methyl}-8-[(1S,2S)-2-hydroxycyclohexyl]-8,9-dihydro-7H-pyrrolo[3,4-h]quinolin-7-one], the EC50 worked out at 246 nM.

In the case of `CC1c2c(cc(CN3CCC(F)(F)CC3)c3cccnc23)C(=O)N1[C@@H]1CCCC[C@@H]1O` (stereo partly drawn) [Example 104, 5-[(4,4-difluoropiperidin-1-yl)methyl]-8-[(1R,2S)-2-hydroxycyclohexyl]-9-methyl-8,9-dihydro-7H-pyrrolo[3,4-h]quinolin-7-one], the EC50 was determined as 15 nM.

Consider `N#CC1(c2ccccn2)CCN(Cc2cc3c(c4ncccc24)CN([C@H]2CCCC[C@@H]2O)C3=O)CC1` [Example 145, 1-({8-[(1S,2S)-2-hydroxycyclohexyl]-7-oxo-8,9-dihydro-7H-pyrrolo[3,4-h]quinolin-5-yl}methyl)-4-pyridin-2-ylpiperidine-4-carbonitrile], for which the EC50 was determined as 7.6 nM.

Consider `CC1c2c(cc(CN3CCC(c4ccncc4)CC3)c3cccnc23)C(=O)N1C1CCCCC1O` (stereo not shown) [Example 143, 8-(2-hydroxycyclohexyl)-9-methyl-5-[(4-pyridin-4-ylpiperidin-1-yl)methyl]-8,9-dihydro-7H-pyrrolo[3,4-h]quinolin-7-one], for which the EC50 was found to be 89 nM.

Take `O=C1c2cc(CN3CCN(c4cccnc4)CC3)c3cccnc3c2CN1C1CCCCC1O` (stereo not shown) [Example 162, 8-(2-hydroxycyclohexyl)-5-[(4-pyridin-3-ylpiperazin-1-yl)methyl]-8,9-dihydro-7H-pyrrolo[3,4-h]quinolin-7-one]: the EC50 is 28 nM.

Consider `CC1c2c(cc(CN3CCC(F)(C#N)CC3)c3cccnc23)C(=O)N1C1CCCCC1O` (single isomer, unassigned) [Example 118, 4-fluoro-1-{[8-(2-hydroxycyclohexyl)-9-methyl-7-oxo-8,9-dihydro-7H-pyrrolo[3,4-h]quinolin-5-yl]methyl}piperidine-4-carbonitrile], for which the EC50 came to 450 nM.

As for `O=C1c2cc(CN3CCOCC3)c3cccnc3c2CN1C1CCCCC1O` (stereo not shown) [Example 99, 8-(2-hydroxycyclohexyl)-5-(morpholin-4-ylmethyl)-8,9-dihydro-7H-pyrrolo[3,4-h]quinolin-7-one], the EC50 came out at 150 nM.

For the compound `O=C1c2cc(CN3CCN(c4ccccc4)CC3)c3cccnc3c2CN1C1CCCCC1O` (stereo not shown) [Example 174, 8-(2-hydroxycyclohexyl)-5-[(4-phenylpiperazin-1-yl)methyl]-8,9-dihydro-7H-pyrrolo[3,4-h]quinolin-7-one], the EC50 worked out at 18 nM.

With `O=C1c2cc(CN3CCC(F)(Cc4ccccc4)CC3)c3cccnc3c2CN1C1CCCCC1O` (stereo not shown) [Example 134, 5-[(4-benzyl-4-fluoropiperidin-1-yl)methyl]-8-(2-hydroxycyclohexyl)-8,9-dihydro-7H-pyrrolo[3,4-h]quinolin-7-one], the EC50 stood at 207 nM.

Turning to `O=C1c2cc(CN3CCC(F)(F)C3)c3cccnc3c2CN1C1CCCCC1O` (stereo not shown) [Example 98, 5-[(3,3-difluoropyrrolidin-1-yl)methyl]-8-(2-hydroxycyclohexyl)-8,9-dihydro-7H-pyrrolo[3,4-h]quinolin-7-one], the EC50 is 151 nM.

On to `COc1ccc(N2CCN(Cc3cc4c(c5ncccc35)C(C)N(C3CCCCC3O)C4=O)CC2)cc1` (stereo not shown) [Example 169, 8-(2-hydroxycyclohexyl)-5-{[4-(4-methoxyphenyl)piperazin-1-yl]methyl}-9-methyl-8,9-dihydro-7H-pyrrolo[3,4-h]quinolin-7-one], for which the EC50 amounted to 590 nM.

`CC1c2c(cc(CN3CCC(c4ccncc4)CC3)c3cccnc23)C(=O)N1C1CCCCC1O` (stereo not shown) [Example 161, 8-(2-hydroxycyclohexyl)-9-methyl-5-[(4-pyridin-4-ylpiperidin-1-yl)methyl]-8,9-dihydro-7H-pyrrolo[3,4-h]quinolin-7-one]: the EC50 is 650 nM.

Regarding `O=C1c2cc(CN3CCCC(F)C3)c3cccnc3c2CN1C1CCCCC1O` (stereo not shown) [Example 121, 5-[(3-fluoropiperidin-1-yl)methyl]-8-(2-hydroxycyclohexyl)-8,9-dihydro-7H-pyrrolo[3,4-h]quinolin-7-one], the EC50 came out at 108 nM.

Consider `O=C1c2cc(CN3CCC(F)(C#Cc4ccc(F)cc4)CC3)c3cccnc3c2CN1C1CCCCC1O` (stereo not shown) [Example 133, 5-({4-fluoro-4-[(4-fluorophenyl)ethynyl]piperidin-1-yl}methyl)-8-(2-hydroxycyclohexyl)-8,9-dihydro-7H-pyrrolo[3,4-h]quinolin-7-one], for which the EC50 stood at 129 nM.

The same assay, now with this note: Table 3; inflection point calculated from the FLIPR values; EC20 acetylcholine (3 nM final); read-out: IP Value.
`O=C1c2cc(CN3CCC(F)(F)CC3)c3cccnc3c2CN1[C@H]1CCOC[C@@H]1O` [Example 7, 1,5-Anhydro-2,3-dideoxy-3-{5-[(4,4-difluoropiperidin-1-yl)methyl]-7-oxo-7,9-dihydro-8H-pyrrolo[3,4-h]quinolin-8-yl}-L-threo-pentitol]: the EC50 was 147 nM.

Take `C=CC1(F)CCN(Cc2cc3c(c4ncccc24)CN([C@H]2CCCC[C@@H]2O)C3=O)CC1` [Example 9, 5-[(4-Ethenyl-4-fluoropiperidin-1-yl)methyl]-8-[(1S,2S)-2-hydroxycyclohexyl]-8,9-dihydro-7H-pyrrolo[3,4-h]quinolin-7-one]: the EC50 is 420 nM.
